Common to all, as to assay: NCI-60 cell line screen, 48 h
For assay [1], the system named is KM12.
Assay [2] has as its system NCI/ADR-RES.
Assay [3] has as its system HOP-92.
The subject of assay [4] is Hs-578T.
Assay [5] has as its system SR.
The subject of assay [6] is EKVX.
In assay [7] the test system is MDA-MB-435.
Assay [8] has as its system SK-MEL-5.
The subject of assay [9] is NCI-H522.
For assay [10], the system named is HCC 2998.
Assay [11] has as its system MDA-MB-231.
For assay [12], the system named is MDA-N.
Assay [13] has as its system PC-3.
For assay [14], the system named is SW-620.
In assay [15] the test system is T47D.
Assay [16] concerns BT-549.
Assay [17] has as its system Malme-3M.
Assay [18] has as its system M19-MEL.
Assay [19] relates to HOP-18.
Assay [20] deals with DMS-114.

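Cultured in 96-well plates, cells were exposed to test compound for 48 hours across five concentrations. Abbreviation: GI50, concentration required for 50% inhibition of growth.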 Activity calls are given as the source filed them. Rule as the data show it: active = GI50 up to about 1.1 µM and inactive = higher. *1 amine or outer side, *2 acyl side, *3 side chain or, on linkers, in order; H or OH if unused. Where a SMILES comes first, the peptide text is derived from it. Bridges are numbered along the chain shown (N, C = ends). Roman numbers before positions name the chains, in order. [ ]: non-standard residue; d: D form. Actinocin(9to1) = Cc1c2oc3c(C)ccc(C(=O)[*:1])c3nc-2c(C(=O)[*:2])c(N)c1=O; NMeV = CN[CH](C(=O)O)C(C)C; Sar = CNCC(=O)O

`CC1OC1C(=O)P(=O)(O)O` (stereo not drawn): the GI50 in assay [1], in assay [2], in assay [3], in assay [4], in assay [5] and in assay [6] was > 100 µM (inactive) throughout. Moreover, the GI50 in assay [7], in assay [8], in assay [9], in assay [10], in assay [11] and in assay [12] was > 100 µM (inactive) in each case. The GI50 in assay [13], in assay [14], in [15] and in [16] was > 100 µM (inactive) each time.

With `Nn1c(S)nnc1COc1cccc(OCc2nnc(S)n2N)c1`, the GI50 was > 100 µM (inactive) in assay [1]; > 100 µM (inactive) in assay [2]; > 100 µM (inactive) in [3]; > 100 µM (inactive) in assay [4]; 2.45 µM (inactive) in assay [5]; > 100 µM (inactive) in assay [6]. Moreover, the GI50 is > 100 µM (inactive) in assay [7]; 65.3 µM (inactive) in assay [9]; > 100 µM (inactive) in assay [10]; > 100 µM (inactive) in assay [11]; > 100 µM (inactive) in assay [12]; > 100 µM (inactive) in assay [17]. In addition, the GI50 in [13] was > 100 µM (inactive); in assay [14], 40 µM (inactive); in assay [15], > 100 µM (inactive); in assay [16] it was > 100 µM (inactive).

As to `FC(F)(F)c1ccc2c(c1)nc1n2C(c2c(Cl)cccc2Cl)SC1` (stereo not drawn), the GI50 in [1] is 12.2 µM (inactive); in assay [2], 21.5 µM (inactive); in [3] it was 13.6 µM (inactive); in assay [4] it was 19.7 µM (inactive); in [5], 20.7 µM (inactive); in [6], 14.2 µM (inactive). Also, the GI50 is 16.8 µM (inactive) in assay [7]; 22 µM (inactive) in [9]; 21.8 µM (inactive) in [10]; 17 µM (inactive) in assay [11]; 16.6 µM (inactive) in [12]; 18.2 µM (inactive) in assay [17]. Moreover, the GI50 in assay [13] is 15 µM (inactive); in assay [14] it was 24.3 µM (inactive); in [15], 15.8 µM (inactive); in [16], 23 µM (inactive).

Turning to `COc1c(CC(C)O)c2c3c(CC(C)O)c(OC)c(=O)c4c(O)cc5c(c6c(cc(O)c(c1=O)c62)OCO5)c43` (stereo not drawn) [CERCOSPORIN], the GI50 in [1] was 1.62 µM (inactive); in [3], 2.3 µM (inactive); in assay [5], 1.37 µM (inactive); in [8], 1.52 µM (inactive); in assay [9], 1.82 µM (inactive); in assay [18], 0.664 µM (active). The GI50 in [17] was 0.374 µM (active); in [19], 2.58 µM (inactive); in assay [14], 2.1 µM (inactive).

Regarding `COc1ccc(CC2COc3cc(O)cc(O)c3C2=O)cc1O` (stereo not drawn), the GI50 was 2.81 µM (inactive) in assay [1]; 2.64 µM (inactive) in assay [2]; 22.3 µM (inactive) in assay [3]; 2.4 µM (inactive) in [4]; 1.03 µM (active) in [5]; > 100 µM (inactive) in assay [6]. Also, the GI50 in assay [7] was 1.32 µM (inactive); in [8], 5.13 µM (inactive); in assay [9], 4.7 µM (inactive); in assay [11], 6.49 µM (inactive); in [12], 1.47 µM (inactive); in [17], 4.21 µM (inactive). For the same compound, the GI50 in assay [13] is 7.08 µM (inactive); in assay [14], 3.56 µM (inactive); in assay [15] it was 3.99 µM (inactive); in assay [16], 82.2 µM (inactive).

On to `O=C(NC1CCCCC1)NC12CC3CC(CC(F)(C3)C1)C2`, for which the GI50 in assay [1] was > 100 µM (inactive); in assay [3], 54.5 µM (inactive); in assay [6], 57.7 µM (inactive); in [8], > 100 µM (inactive); in [9], > 100 µM (inactive); in assay [10] it was > 100 µM (inactive). The GI50 in assay [18], in [17], in assay [14] and in assay [20] was > 100 µM (inactive) each time.

In the case of `Cc1c2oc3c(C)ccc(C(=O)NC4C(=O)NC(C(C)O)C(=O)N5CCCC5C(=O)N(C)CC(=O)N(C)C(C(C)C)C(=O)OC4C)c3nc-2c(C(=O)NC2C(=O)NC(C(C)O)C(=O)N3CCCC3C(=O)N(C)CC(=O)N(C)C(C(C)C)C(=O)OC2C)c(N)c1=O` (stereo not drawn) (I: TTP[Sar][NMeV] / II: TTP[Sar][NMeV]; ester I:1-I:C, II:1-II:C; linker I:N-II:N via Actinocin(9to1); configuration not given here), the GI50 in assay [1] was 0.185 µM (active); in [2], > 100 µM (inactive); in [4], 1.41 µM (inactive); in [5], < 0.01 µM (active); in assay [7], 0.413 µM (active); in assay [8] it was 0.167 µM (active). The GI50 was 0.0766 µM (active) in assay [9]; 1.54 µM (inactive) in assay [10]; 3.76 µM (inactive) in assay [11]; 1.08 µM (active) in [12]; 0.125 µM (active) in assay [17]; 1.06 µM (active) in assay [13]. Besides, the GI50 in assay [14] is 0.067 µM (active); in [15] it was 0.184 µM (active); in [16] it was 0.0155 µM (active).

Consider `O=C1c2ccccc2C(=O)c2[nH]c(=O)c(/C=N/Nc3ccc([N+](=O)[O-])cc3)nc21`, for which the GI50 in assay [1] is 5.73 µM (inactive); in assay [2] it was 19.1 µM (inactive); in [3] it was 15.2 µM (inactive); in assay [4] it was 3.22 µM (inactive); in [5] it was 17.5 µM (inactive); in [6] it was 24.1 µM (inactive). The GI50 in [7] is 1.8 µM (inactive); in assay [8] it was 1.62 µM (inactive); in assay [9], 3.23 µM (inactive); in assay [10] it was 1.61 µM (inactive); in assay [11], 11.3 µM (inactive); in assay [12], 1.75 µM (inactive). The GI50 is 1.21 µM (inactive) in [17]; 17.1 µM (inactive) in assay [13]; 12.1 µM (inactive) in assay [14]; > 47.2 µM (inactive) in [15]; 5.08 µM (inactive) in assay [16].

Turning to `COc1ccc2nc3cc(Cl)ccc3c(NCCCCCC(=O)NC(COc3ccc4ccc5cccnc5c4n3)COc3ccc4ccc5cccnc5c4n3)c2c1`, the GI50 in assay [1] was 27.9 µM (inactive); in assay [2], 26.9 µM (inactive); in assay [3], 24.4 µM (inactive); in [4], 29 µM (inactive); in assay [5] it was 3.14 µM (inactive); in [6] it was 24.8 µM (inactive). Besides, the GI50 in assay [7] was 38.6 µM (inactive); in [8] it was 16.8 µM (inactive); in [9], 24.1 µM (inactive); in [10], 14.9 µM (inactive); in [11] it was 19.4 µM (inactive); in assay [12], 23 µM (inactive). The GI50 in [17] is 45.9 µM (inactive); in [13], 15.2 µM (inactive); in [14] it was 12 µM (inactive); in [15], 20.1 µM (inactive); in assay [16] it was 1.67 µM (inactive).

For the compound `O=Cc1cc(O)ccc1Br`, the GI50 in assay [1] was 23.5 µM (inactive); in assay [2], 12.1 µM (inactive); in assay [3] it was 19 µM (inactive); in [4], 9.31 µM (inactive); in [5], 2.63 µM (inactive); in assay [6], 65.6 µM (inactive). Further, the GI50 is 2.5 µM (inactive) in [7]; 17.3 µM (inactive) in assay [8]; 38.4 µM (inactive) in [9]; 11.8 µM (inactive) in [10]; 36.1 µM (inactive) in [11]; 3.1 µM (inactive) in assay [12]. Besides, the GI50 is 18.5 µM (inactive) in [17]; 13.2 µM (inactive) in assay [13]; 4.78 µM (inactive) in assay [14]; 42.1 µM (inactive) in [15]; 11.6 µM (inactive) in assay [16].

For the compound `C[N+](C)(C)c1ncnc2c1ncn2C1CC(O)C(CO)O1` (stereo not drawn), the GI50 in [1], in assay [2], in assay [3], in assay [4], in [5] and in assay [6] was > 100 µM (inactive) throughout. Also, the GI50 in [7], in [8], in assay [9], in assay [10], in assay [11] and in [12] was > 100 µM (inactive) throughout. Further, the GI50 in assay [17], in [13], in [14], in assay [15] and in [16] was > 100 µM (inactive) in each case.

Turning to `COc1nc2c(N3CCCC3)nc(N3CCNCC3)nc2nc1NCc1ccccc1`, the GI50 in assay [1] is 1.61 µM (inactive); in [2], 4.17 µM (inactive); in assay [3], 1.79 µM (inactive); in [4], 2.08 µM (inactive); in assay [5], 1.32 µM (inactive); in assay [6], 2.77 µM (inactive). Also, the GI50 is 1.39 µM (inactive) in assay [7]; 1.53 µM (inactive) in assay [8]; 1.09 µM (active) in [9]; 1.39 µM (inactive) in [10]; 1.63 µM (inactive) in assay [11]; 1.21 µM (inactive) in [12]. The GI50 in [17] was 2.07 µM (inactive); in assay [13], 2.28 µM (inactive); in assay [14] it was 2.77 µM (inactive); in [15], 1.41 µM (inactive); in assay [16] it was 1.85 µM (inactive).

Turning to `CCCCCCC1NN(C(C)=O)C(CCCCCC)NN1C(C)=O` (stereo not drawn), the GI50 in [1], in assay [3], in assay [6], in [8], in assay [9] and in assay [10] was > 100 µM (inactive) throughout. The GI50 in [18] was > 100 µM (inactive); in assay [17] it was > 100 µM (inactive); in [19], > 100 µM (inactive); in assay [14], 20.4 µM (inactive).
